Reference: patent US10259847B2, “Beta-hairpin peptidomimetics” (POLYPHOR AG, priority 2014, dated 2019)
Read-outs that look alike come from different tables or passages of the source. Where a SMILES comes first, the peptide text is derived from it. Bridges are numbered along the chain shown (N, C = ends). [ ]: non-standard residue; d: D form. Tle = CC(C)(C)[C@H](N)C(=O)O; dDab = NCC[C@@H](N)C(=O)O; NMeA = CN[C@@H](C)C(=O)O; Dab = NCC[C@H](N)C(=O)O; Dap = NC[C@H](N)C(=O)O

Tests used:
Assay type in all cases: cell-based
[1] = system: Acinetobacter baumannii DSM 30008
Protocol: (§1) Stock solutions were kept at +4° C., light protected.
(§2) The selective antimicrobial activities of the peptides were determined in 96-well plates (Greiner, polystyrene) by the standard NCCLS broth microdilution method (National Committee for Clinical Laboratory Standards 1993. Methods for dilution antimicrobial susceptibility tests for bacteria that grow aerobically, 3rd ed. Approved standard M7-A6; National Committee for Clinical laboratory standards, Wayne, Pa.) with slight modifications. Inocula of the microorganisms were diluted into Mueller-Hinton II (MH, cation adjusted) broth and compared with a 0.5 McFarland standard to give appr. 10^6 colony forming units (CFU)/mL. Aliquots (90 μl) of inoculate were added to 10 μl of MH broth+P-80 (Polysorbate 80, 0.002% final concentration) containing the peptide in serial two-fold dilutions. The following microorganisms were used to determine antibiotic selectivity of the peptides: Escherichia coli ATCC 25922, Klebsiella pneumoniae ATCC 13883 and Acinetobacter baumannii DSM 30008.

[2] = system: Escherichia coli ATCC 25922
Protocol: as §1, §2

[3] = system: Klebsiella pneumoniae ATCC 13883
Protocol: as §1, §2

[4] = system: human red blood cells (hRBC); assay: Hemolysis of human red blood cells
Protocol: as §1
Percent hemolysis was calculated as follows: (OD540peptide/OD540H2O)×100%.

[5] = Mueller-Hinton broth II, 0.002% P-80, 18-20 hours at 35° C.
[6] = 100 μg/mL, 20% hRBC (v/v), 1 h at 37° C.

Compound	Acinetobacter baumannii DSM 30008 MIC [1, 5]	Escherichia coli ATCC 25922 MIC [2, 5]	Klebsiella pneumoniae ATCC 13883 MIC [3, 5]	Hemolysis at 100 μg/mL [4, 6]	Acinetobacter baumannii DSM 30008 MIC ([1]; DSM 30008)	Escherichia coli ATCC 25922 MIC ([2]; ATCC 25922)	Klebsiella pneumoniae ATCC 13883 MIC ([3]; ATCC 13883)	Hemolysis at 100 μg/mL ([4]; red cells of human, 1 h, 100)
CC(C)C[C@@H]1NC(=O)[C@H](CCN)NC(=O)[C@H]2CCCN2C(=O)[C@H](C(C)C)NC(=O)[C@@H]2CSSC[C@H](NC1=O)C(=O)N[C@@H](Cc1ccc(O)cc1)C(=O)N[C@@H](C)C(=O)N[C@@H](CCN)C(=O)N[C@@H](CCN)C(=O)N[C@@H](CCN)C(=O)N[C@@H](Cc1c[nH]c3ccccc13)C(=O)N[C@@H](C)C(=O)N[C@@H](C(C)C)C(=O)N2 [Example 1, cyclo(-Leu-Cys-Tyr-Ala-Dab-Dab-Dab-Trp-Ala-Val-Cys-Val-^DPro-Dab-)] (HELM PEPTIDE1{A.[Dab].[Dab].[Dab].W.A.V.C.V.[dP].[Dab].L.C.Y}$PEPTIDE1,PEPTIDE1,8:R3-13:R3|PEPTIDE1,PEPTIDE1,1:R1-14:R2$$$V2.0)	2.5 µg/mL	4 µg/mL	2 µg/mL	2%				
CC(C)C[C@@H]1NC(=O)[C@H](CCN)NC(=O)[C@H]2CCCN2C(=O)[C@H](C(C)C)NC(=O)[C@@H]2CSSC[C@H](NC1=O)C(=O)N[C@@H](Cc1ccc(O)cc1)C(=O)N[C@@H](C)C(=O)N[C@@H](CCN)C(=O)N[C@H](CCN)C(=O)N[C@@H](CCN)C(=O)N[C@@H](Cc1c[nH]c3ccccc13)C(=O)N[C@@H](C)C(=O)N[C@@H](C(C)C)C(=O)N2 [Example 2, cyclo(-Leu-Cys-Tyr-Ala-Dab-^DDab-Dab-Trp-Ala-Val-Cys-Val-^DPro-Dab-)] (HELM PEPTIDE1{A.[Dab].[NCC[C@@H](N[*:1])C(=O)[*:2]].[Dab].W.A.V.C.V.[dP].[Dab].L.C.Y}$PEPTIDE1,PEPTIDE1,8:R3-13:R3|PEPTIDE1,PEPTIDE1,1:R1-14:R2$$$V2.0)					2.5 µg/mL	2 µg/mL	2 µg/mL	3%
CC(C)C[C@@H]1NC(=O)[C@H](CCCCN)NC(=O)[C@H]2CCCN2C(=O)[C@H](C(C)C)NC(=O)[C@@H]2CSSC[C@H](NC1=O)C(=O)N[C@@H](Cc1ccc(O)cc1)C(=O)N[C@@H](C)C(=O)N[C@@H](CCCN)C(=O)N[C@H](CCN)C(=O)N[C@@H](CCN)C(=O)N[C@@H](Cc1c[nH]c3ccccc13)C(=O)N[C@@H](C)C(=O)N[C@@H](C(C)C)C(=O)N2 [Example 3, cyclo(-Leu-Cys-Tyr-Ala-Orn-^DDab-Dab-Trp-Ala-Val-Cys-Val-^DPro-Lys-)] (HELM PEPTIDE1{A.[Orn].[NCC[C@@H](N[*:1])C(=O)[*:2]].[Dab].W.A.V.C.V.[dP].K.L.C.Y}$PEPTIDE1,PEPTIDE1,8:R3-13:R3|PEPTIDE1,PEPTIDE1,1:R1-14:R2$$$V2.0)					1 µg/mL	2 µg/mL	4 µg/mL	3.5%
CC(C)C[C@@H]1NC(=O)[C@H](CCCN)NC(=O)[C@H]2CCCN2C(=O)[C@H](C(C)C)NC(=O)[C@@H]2CSSC[C@H](NC1=O)C(=O)N[C@@H](Cc1ccc(O)cc1)C(=O)N[C@@H](C)C(=O)N[C@@H](CCCN)C(=O)N[C@H](CCN)C(=O)N[C@@H](CCN)C(=O)N[C@@H](Cc1c[nH]c3ccccc13)C(=O)N[C@@H](C)C(=O)N[C@@H](C(C)C)C(=O)N2 [Example 4, cyclo(-Leu-Cys-Tyr-Ala-Orn-^DDab-Dab-Trp-Ala-Val-Cys-Val-^DPro-Orn-)] (HELM PEPTIDE1{A.[Orn].[NCC[C@@H](N[*:1])C(=O)[*:2]].[Dab].W.A.V.C.V.[dP].[Orn].L.C.Y}$PEPTIDE1,PEPTIDE1,8:R3-13:R3|PEPTIDE1,PEPTIDE1,1:R1-14:R2$$$V2.0)					2 µg/mL	2 µg/mL	4 µg/mL	2.5%
CC(C)C[C@@H]1NC(=O)[C@H](CCN)NC(=O)[C@H]2CCCN2C(=O)[C@H](C(C)C)NC(=O)[C@@H]2CSSC[C@H](NC1=O)C(=O)N[C@@H](Cc1ccc(O)cc1)C(=O)N[C@@H](C)C(=O)N[C@@H](CCCN)C(=O)N[C@H](CCN)C(=O)N[C@@H](CCN)C(=O)N[C@@H](Cc1c[nH]c3ccccc13)C(=O)N[C@@H](C)C(=O)N[C@@H](C(C)C)C(=O)N2 [Example 5, cyclo(-Leu-Cys-Tyr-Ala-Orn-^DDab-Dab-Trp-Ala-Val-Cys-Val-^DPro-Dab-)] (HELM PEPTIDE1{A.[Orn].[NCC[C@@H](N[*:1])C(=O)[*:2]].[Dab].W.A.V.C.V.[dP].[Dab].L.C.Y}$PEPTIDE1,PEPTIDE1,8:R3-13:R3|PEPTIDE1,PEPTIDE1,1:R1-14:R2$$$V2.0)					1 µg/mL	2 µg/mL	2 µg/mL	3%
CC(C)C[C@@H]1NC(=O)[C@H](CN)NC(=O)[C@H]2CCCN2C(=O)[C@H](C(C)C)NC(=O)[C@@H]2CSSC[C@H](NC1=O)C(=O)N[C@@H](Cc1ccc(O)cc1)C(=O)N[C@@H](C)C(=O)N[C@@H](CCCN)C(=O)N[C@H](CCN)C(=O)N[C@@H](CCN)C(=O)N[C@@H](Cc1c[nH]c3ccccc13)C(=O)N[C@@H](C)C(=O)N[C@@H](C(C)C)C(=O)N2 [Example 6, cyclo(-Leu-Cys-Tyr-Ala-Orn-^DDab-Dab-Trp-Ala-Val-Cys-Val-^DPro-Dap-)] (HELM PEPTIDE1{A.[Orn].[NCC[C@@H](N[*:1])C(=O)[*:2]].[Dab].W.A.V.C.V.[dP].[NC[C@H](N[*:1])C(=O)[*:2]].L.C.Y}$PEPTIDE1,PEPTIDE1,8:R3-13:R3|PEPTIDE1,PEPTIDE1,1:R1-14:R2$$$V2.0)					1.5 µg/mL	2 µg/mL	2 µg/mL	5%
CC[C@H](C)[C@@H]1NC(=O)[C@@H]2CCCN2C(=O)[C@H]2CCCN2C(=O)[C@H](Cc2ccc(O)cc2)NC(=O)[C@@H]2CSSC[C@H](NC1=O)C(=O)N[C@@H](Cc1ccc(O)cc1)C(=O)N[C@@H](CCN)C(=O)N[C@@H](CCCN)C(=O)N[C@H](CCN)C(=O)N[C@@H](CCN)C(=O)N[C@@H](CC(C)C)C(=O)N[C@@H](CCN)C(=O)N[C@@H](C(C)C)C(=O)N2 [Example 7, cyclo(-Ile-Cys-Tyr-Dab-Orn-^DDab-Dab-Leu-Dab-Val-Cys-Tyr-^DPro-Pro-)] (HELM PEPTIDE1{I.C.Y.[Dab].[Orn].[NCC[C@@H](N[*:1])C(=O)[*:2]].[Dab].L.[Dab].V.C.Y.[dP].P}$PEPTIDE1,PEPTIDE1,2:R3-11:R3|PEPTIDE1,PEPTIDE1,1:R1-14:R2$$$V2.0)					1 µg/mL	0.5 µg/mL	0.25 µg/mL	11%
CC(C)[C@@H]1NC(=O)[C@@H]2CCCN2C(=O)[C@H]2CCCN2C(=O)[C@H]([C@@H](C)O)NC(=O)[C@@H]2CSSC[C@H](NC1=O)C(=O)N[C@@H](Cc1ccc(O)cc1)C(=O)N[C@@H](CCN)C(=O)N[C@@H](CN)C(=O)N[C@@H](CCN)C(=O)N[C@@H](CCN)C(=O)N[C@@H](Cc1c[nH]c3ccccc13)C(=O)N[C@@H](CCN)C(=O)N[C@@H](C(C)(C)C)C(=O)N2 [Example 8, cyclo(-Val-Cys-Tyr-Dab-Dap-Dab-Dab-Trp-Dab-tBuGly-Cys-Thr-^DPro-Pro-)] (HELM PEPTIDE1{V.C.Y.[Dab].[NC[C@H](N[*:1])C(=O)[*:2]].[Dab].[Dab].W.[Dab].[CC(C)(C)[C@H](N[*:1])C(=O)[*:2]].C.T.[dP].P}$PEPTIDE1,PEPTIDE1,2:R3-11:R3|PEPTIDE1,PEPTIDE1,1:R1-14:R2$$$V2.0)	2 µg/mL	1 µg/mL	0.5 µg/mL	1%				
CC(C)[C@@H]1NC(=O)[C@H](C)N(C)C(=O)[C@H]2CCCN2C(=O)[C@H](CO)NC(=O)[C@@H]2CSSC[C@H](NC1=O)C(=O)N[C@@H](Cc1ccc(O)cc1)C(=O)N[C@@H](CCN)C(=O)N[C@@H](CN)C(=O)N[C@H](CCN)C(=O)N[C@@H](CCN)C(=O)N[C@@H](Cc1c[nH]c3ccccc13)C(=O)N[C@@H](CCN)C(=O)N[C@@H](C(C)(C)C)C(=O)N2 [Example 9, cyclo(-Val-Cys-Tyr-Dab-Dap-^DDab-Dab-Trp-Dab-tBuGly-Cys-Ser-^DPro-NMeAla-)] (cyclo(CS[dP][NMeA]VCY[Dab][Dap][dDab][Dab]W[Dab][Tle]); disulfide 1-6)					1 µg/mL	0.5 µg/mL	1 µg/mL	6%
CC[C@H](C)[C@@H]1NC(=O)[C@@H]2CCCN2C(=O)[C@H]2CCCN2C(=O)[C@H](CO)NC(=O)[C@@H]2CSSC[C@H](NC1=O)C(=O)N[C@@H](Cc1ccc(O)cc1)C(=O)N[C@@H](CCN)C(=O)N[C@@H](CCCN)C(=O)N[C@H](CCN)C(=O)N[C@@H](CCN)C(=O)N[C@@H](Cc1c[nH]c3ccccc13)C(=O)N[C@@H](CCN)C(=O)N[C@@H](C(C)(C)C)C(=O)N2 [Example 10, cyclo(-Ile-Cys-Tyr-Dab-Orn-^DDab-Dab-Trp-Dab-tBuGly-Cys-Ser-^DPro-Pro-)] (HELM PEPTIDE1{I.C.Y.[Dab].[Orn].[NCC[C@@H](N[*:1])C(=O)[*:2]].[Dab].W.[Dab].[CC(C)(C)[C@H](N[*:1])C(=O)[*:2]].C.S.[dP].P}$PEPTIDE1,PEPTIDE1,2:R3-11:R3|PEPTIDE1,PEPTIDE1,1:R1-14:R2$$$V2.0)					1 µg/mL	1 µg/mL	0.25 µg/mL	1%
